Experimental data reported in publication PMC7689250, “Synthetic Peptide Libraries Designed From a Minimal Alpha-Helical Domain of AS-48-Bacteriocin Homologs Exhibit Potent Antibacterial Activity” (Frontiers in Microbiology, 2020).
Like-named read-outs stand apart in the source and are kept apart here. Residues, ends and D or L forms follow the SMILES beside them.

What was measured:
S. aureus (USA300) = assay type: cell-based, Staphylococcus aureus; settings: for MBC: USA300; for MIC: USA300, 16 h
Experimental: (§1) Peptides were screened against Escherichia coli (BL21), Streptococcus pyogenes (M1T1 5448, hereby referred to as M1), Pseudomonas aeruginosa (PAO1), and Staphylococcus aureus (USA300). Overnight bacterial cultures were grown in optimal media for each species: Luria-Bertani (LB) broth for E. coli, P. aeruginosa, and S. aureus, and Todd-Hewitt (TH) broth for S. pyogenes. Cultures were pelleted and re-suspended in Mueller-Hinton (MH) broth for peptide screens or minimal inhibitory concentration (MIC) assays, with 1 × 10^6 CFU/mL bacteria added per well ([Wiegand et al., 2008]). MICs for each parent peptide were identified against each bacterial strain as previously described ([Fields et al., 2018]). Members of each peptide library were screened against each bacterial strain at half of the MIC of the corresponding parent peptide to identify library members with increased antimicrobial activity relative to the parent peptide. […] Minimal bactericidal concentrations (MBCs) were determined following the respective MIC assays by plating aliquots from wells corresponding to each peptide concentration from the 96-well plate used for the MIC on species-appropriate agar. Plates were incubated at 37°C overnight, and MBCs were identified as the lowest concentrations of peptide at which no colonies were obtained. A Synergy H1 Microplate Reader (BioTek, Winooski, VT, United States) was used to determine the MICs and identify peptides with greater antimicrobial activity than the corresponding parent peptide by measuring OD 600 of the bacterial cultures in 96-well microtiter plates.

P. aeruginosa (PAO1) = assay type: cell-based, Pseudomonas aeruginosa; settings: for MBC: PAO1; for MIC: PAO1, 16 h
Experimental: as §1

E. coli (BL21) = assay type: cell-based, Escherichia coli; settings: for MBC: BL21; for MIC: BL21, 16 h
Experimental: as §1

S. pyogenes (M1) = assay type: cell-based, Streptococcus pyogenes; settings: for MBC: M1
Experimental: as §1

sheep erythrocytes = assay type: cell-based; settings: red cells of sheep, 1 h
Experimental: To determine if peptide variants were hemolytic, fresh defibrinated whole sheep blood (Hardy Diagnostics) was washed three times in cold PBS, and washed blood was diluted 1:25 in PBS. Treatments were applied at a 1:10 ratio of sample:blood, where the sample was either 10% Triton, PBS, or a specific peptide concentration corresponding to concentrations used in the MIC assays. Treatments were incubated with the blood for 1 h at 37°C. Following incubation, samples were centrifuged at […] for 10 min at 4°C, and the absorbance of the supernatants at 450 nm was measured on the Synergy H1 Microplate Reader to measure the release of hemoglobin. Percent hemolysis was quantified by normalizing to the negative and positive controls.

| Compound | MBC (S. aureus (USA300)) [µM] | MIC (S. aureus (USA300)) [µM] | MBC (P. aeruginosa (PAO1)) [µM] | MIC (P. aeruginosa (PAO1)) [µM] | MBC (E. coli (BL21)) [µM] | MIC (E. coli (BL21)) [µM] | MBC (S. pyogenes (M1)) [µM] | MIC (S. pyogenes (M1); M1, 16 h) [µM] | Percent Hemolysis (sheep erythrocytes) [%] | MIC (S. pyogenes (M1); S. pyogenes M1) [µM] |
| --- | --- | --- | --- | --- | --- | --- | --- | --- | --- | --- |
| CC[C@H](C)[C@H](NC(=O)[C@H](CCCCN)NC(=O)[C@H](CCCCN)NC(=O)[C@H](CCCCN)NC(=O)[C@H](CC(C)C)NC(=O)[C@H](CCCNC(=N)N)NC(=O)[C@H](CCC(N)=O)NC(=O)[C@H](Cc1ccccc1)NC(=O)[C@@H](NC(=O)[C@@H](NC(=O)[C@H](CCC(=O)O)NC(=O)[C@H](CCCCN)NC(=O)CNC(=O)[C@H](C)N)[C@@H](C)O)[C@@H](C)CC)C(=O)N[C@@H](CCC(N)=O)C(=O)N[C@@H](CCC(=O)O)C(=O)N[C@@H](CCCCN)C(=O)NCC(=O)N[C@@H](CCCCN)C(=O)N[C@@H](CCCNC(=N)N)C(=O)N[C@@H](C)C(=O)N[C@H](C(=O)N[C@H](C(=O)N[C@@H](Cc1c[nH]c2ccccc12)C(=O)N[C@@H](Cc1c[nH]c2ccccc12)C(=O)O)[C@@H](C)CC)[C@@H](C)O [Syn-larvacin-67] (H-AGKETIFQRLKKKIQEKGKRATIWW-OH; N-terminus and C-terminus assumed) | 64 | 64 | 32 | 16 | 4 | 4 | 0.25 | 0.25 | 16.3 |  |
| CC[C@H](C)[C@H](NC(=O)[C@H](CCCCN)NC(=O)CNC(=O)[C@H](Cc1ccccc1)NC(=O)[C@H](CCCCN)NC(=O)[C@H](CCCNC(=N)N)NC(=O)[C@H](CC(C)C)NC(=O)[C@H](Cc1ccc(O)cc1)NC(=O)[C@H](CCC(=O)O)NC(=O)[C@H](CC(C)C)NC(=O)[C@H](CC(C)C)NC(=O)[C@H](CCC(=O)O)NC(=O)[C@H](CCCCN)NC(=O)[C@@H](NC(=O)[C@H](CC(C)C)NC(=O)[C@H](CCCNC(=N)N)NC(=O)[C@H](CC(N)=O)NC(=O)[C@H](C)NC(=O)[C@H](CCCCN)NC(=O)[C@H](C)N)[C@@H](C)O)C(=O)N[C@@H](C)C(=O)N[C@@H](CCCNC(=N)N)C(=O)N[C@@H](CCCCN)C(=O)N[C@@H](C)C(=O)N[C@@H](Cc1c[nH]c2ccccc12)C(=O)O [Syn-xiamencin-96] (H-AKANRLTKELLEYLRKFGKIARKAW-OH; N-terminus and C-terminus assumed) | 8 | 8 | 16 | 16 | 2 | 2 | 4 | 4 | 20.0 |  |
| CC[C@H](C)[C@H](NC(=O)[C@H](CCCCN)NC(=O)[C@H](CCCCN)NC(=O)CNC(=O)[C@H](CCC(=O)O)NC(=O)[C@H](CC(N)=O)NC(=O)[C@@H](NC(=O)[C@@H](NC(=O)[C@H](CCCCN)NC(=O)[C@H](CCCCN)NC(=O)[C@H](CC(C)C)NC(=O)[C@H](CCCNC(=N)N)NC(=O)[C@H](CC(N)=O)NC(=O)[C@H](Cc1ccccc1)NC(=O)[C@@H](NC(=O)[C@H](CCCCN)NC(=O)[C@H](CCC(=O)O)NC(=O)[C@@H](NC(=O)[C@H](Cc1c[nH]c2ccccc12)NC(=O)[C@H](C)N)[C@@H](C)O)[C@@H](C)CC)[C@@H](C)O)[C@@H](C)CC)C(=O)N[C@@H](C)C(=O)N[C@@H](CCCCN)C(=O)N[C@@H](CCCNC(=N)N)C(=O)N[C@@H](C)C(=O)N[C@@H](Cc1c[nH]c2ccccc12)C(=O)O [Syn-larvacin-40] (H-AWTEKIFNRLKKTINEGKKIAKRAW-OH; N-terminus and C-terminus assumed) | 4 | 4 | 16 | 16 | 2 | 2 | 4 | 0.25 | 17.5 |  |
| CC[C@H](C)[C@H](NC(=O)[C@H](CCCCN)NC(=O)[C@H](C)NC(=O)[C@H](CCCNC(=N)N)NC(=O)[C@H](CCCCN)NC(=O)CNC(=O)[C@H](CCCCN)NC(=O)[C@H](CCC(=O)O)NC(=O)[C@H](CCC(N)=O)NC(=O)[C@@H](NC(=O)[C@@H](NC(=O)[C@H](CCCCN)NC(=O)[C@H](CCCCN)NC(=O)[C@H](CC(C)C)NC(=O)[C@H](Cc1ccccc1)NC(=O)[C@H](CCC(N)=O)NC(=O)[C@H](CCCNC(=N)N)NC(=O)[C@@H](NC(=O)[C@@H](NC(=O)[C@H](CCC(=O)O)NC(=O)[C@H](CCCCN)NC(=O)CNC(=O)[C@H](C)N)[C@@H](C)O)[C@@H](C)CC)[C@@H](C)O)[C@@H](C)CC)C(=O)N[C@@H](Cc1c[nH]c2ccccc12)C(=O)N[C@@H](Cc1c[nH]c2ccccc12)C(=O)O [Syn-larvacin-69] (H-AGKETIRQFLKKTIQEKGKRAKIWW-OH; N-terminus and C-terminus assumed) | 16 | 16 | 32 | 32 | 16 | 2 | 0.5 |  | 12.5 | 0.125 |
| CC[C@H](C)[C@H](NC(=O)[C@H](CCCCN)NC(=O)[C@H](C)NC(=O)[C@H](CCCNC(=N)N)NC(=O)[C@H](CCCCN)NC(=O)CNC(=O)[C@H](CCCCN)NC(=O)[C@H](CCC(=O)O)NC(=O)[C@H](CCC(N)=O)NC(=O)[C@@H](NC(=O)[C@H](CCCCN)NC(=O)[C@H](CCCCN)NC(=O)[C@H](CCCCN)NC(=O)[C@H](CC(C)C)NC(=O)[C@H](CCCNC(=N)N)NC(=O)[C@H](CCC(N)=O)NC(=O)[C@H](Cc1ccccc1)NC(=O)[C@@H](NC(=O)[C@@H](NC(=O)[C@H](CCC(=O)O)NC(=O)[C@H](CCCCN)NC(=O)CNC(=O)[C@H](C)N)[C@@H](C)O)[C@@H](C)CC)[C@@H](C)CC)C(=O)N[C@@H](C)C(=O)N[C@@H](Cc1c[nH]c2ccccc12)C(=O)O [Syn-larvacin-91] (H-AGKETIFQRLKKKIQEKGKRAKIAW-OH; N-terminus and C-terminus assumed) | 2 | 2 | 64 | 32 | 2 | 1 | 0.5 | 0.5 | 23.4 |  |
| CC[C@H](C)[C@H](NC(=O)[C@H](Cc1ccccc1)NC(=O)[C@H](C)NC(=O)[C@H](CCCCN)NC(=O)[C@H](CCCCN)NC(=O)[C@H](Cc1c[nH]c2ccccc12)NC(=O)[C@H](CCCNC(=N)N)NC(=O)[C@H](CCCCN)NC(=O)[C@H](CCCNC(=N)N)NC(=O)[C@H](CC(C)C)NC(=O)[C@H](CCC(=O)O)NC(=O)[C@H](CCC(=O)O)NC(=O)[C@H](CC(C)C)NC(=O)[C@H](CC(C)C)NC(=O)[C@H](Cc1ccc(O)cc1)NC(=O)[C@H](CCCCN)NC(=O)[C@@H](NC(=O)[C@H](CC(C)C)NC(=O)[C@H](C)NC(=O)[C@H](CCC(N)=O)NC(=O)[C@H](CCCNC(=N)N)NC(=O)CNC(=O)[C@H](C)N)[C@@H](C)O)C(=O)N[C@@H](C)C(=O)N[C@@H](Cc1c[nH]c2ccccc12)C(=O)O [Syn-xiamencin-20] (H-AGRQALTKYLLEELRKRWKKAFIAW-OH; N-terminus and C-terminus assumed) | 32 | 32 | 64 | 64 | 1 | 1 | 2 | 2 | 10.5 |  |
| CC[C@H](C)[C@H](NC(=O)[C@H](CCC(=O)O)NC(=O)[C@H](CCCNC(=N)N)NC(=O)[C@H](CCCNC(=N)N)NC(=O)[C@H](CC(C)C)NC(=O)[C@H](Cc1ccc(O)cc1)NC(=O)[C@H](C)NC(=O)[C@H](CCCCN)NC(=O)[C@@H](NC(=O)[C@@H](NC(=O)[C@H](CCC(N)=O)NC(=O)[C@H](CCCNC(=N)N)NC(=O)CNC(=O)[C@H](C)N)[C@@H](C)O)[C@@H](C)CC)C(=O)N[C@@H](CCCNC(=N)N)C(=O)N[C@@H](CCCCN)C(=O)N[C@@H](CCCNC(=N)N)C(=O)NCC(=O)N[C@@H](CCCNC(=N)N)C(=O)N[C@@H](CCCCN)C(=O)N[C@@H](C)C(=O)N[C@H](C(=O)N[C@H](C(=O)N[C@@H](C)C(=O)N[C@@H](Cc1c[nH]c2ccccc12)C(=O)O)[C@@H](C)CC)C(C)C [Syn-sordellicin-1] (H-AGRQTIKAYLRREIRKRGRKAVIAW-OH; N-terminus and C-terminus assumed) | >128 | >128 | 16 | 16 | 8 | 8 | 8 | 8 |  |  |
